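Growth conditions: 96-well plates. Treatment: test compound, 48 hours, 5 concentrations. Analysis: linear interpolation between bracketing concentrations; unreached endpoints set to highest concentration. Here, GI50 denotes the concentration required for 50% inhibition of growth. TGI: total growth inhibition.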
Experiments:
Experiment in all cases: NCI tumour cell line growth inhibition, 48 h
RXF 393 renal = system: RXF 393 renal
KM12 colon = system: KM12 colon
HCC-2998 colon = system: HCC-2998 colon
HCT-116 colon = system: HCT-116 colon
SNB-19 CNS = system: SNB-19 CNS
SR leukemia = system: SR leukemia
786-0 renal = system: 786-0 renal
NCI-H226 lung = system: NCI-H226 lung
OVCAR-3 ovarian = system: OVCAR-3 ovarian
HL-60(TB) leukemia = system: HL-60(TB) leukemia
T-47D breast = system: T-47D breast
A549 NSCLC = system: A549 NSCLC
PC-3 prostate = system: PC-3 prostate
MDA-MB-435 = system: MDA-MB-435
U251 CNS = system: U251 CNS
SK-MEL-28 melanoma = system: SK-MEL-28 melanoma
SF-539 CNS = system: SF-539 CNS
NCI-H460 lung = system: NCI-H460 lung
HOP-62 NSCLC = system: HOP-62 NSCLC
MALME-3M melanoma = system: MALME-3M melanoma
HT29 colon = system: HT29 colon
SW-620 colon = system: SW-620 colon
NCI-H23 lung = system: NCI-H23 lung
TK-10 renal = system: TK-10 renal
M14 melanoma = system: M14 melanoma
MOLT-4 leukemia = system: MOLT-4 leukemia
UO-31 renal = system: UO-31 renal
HS 578T breast = system: HS 578T breast
OVCAR-5 ovarian = system: OVCAR-5 ovarian
SK-MEL-2 melanoma = system: SK-MEL-2 melanoma
A498 renal = system: A498 renal
NCI-H522 lung = system: NCI-H522 lung
K-562 leukemia = system: K-562 leukemia
RPMI-8226 leukemia = system: RPMI-8226 leukemia
OVCAR-8 ovarian = system: OVCAR-8 ovarian
ACHN renal = system: ACHN renal
UACC-257 melanoma = system: UACC-257 melanoma
SF-268 CNS = system: SF-268 CNS
OVCAR-4 ovarian = system: OVCAR-4 ovarian
NCI/ADR-RES ovarian = system: NCI/ADR-RES ovarian
LOX IMVI melanoma = system: LOX IMVI melanoma
SN12C renal = system: SN12C renal
MDA-MB-231 breast = system: MDA-MB-231 breast
CCRF-CEM leukemia = system: CCRF-CEM leukemia
BT-549 breast = system: BT-549 breast
SF-295 CNS = system: SF-295 CNS
EKVX NSCLC = system: EKVX NSCLC
SK-MEL-5 melanoma = system: SK-MEL-5 melanoma
UACC-62 melanoma = system: UACC-62 melanoma
SNB-75 CNS = system: SNB-75 CNS
IGROV1 ovarian = system: IGROV1 ovarian
SK-OV-3 ovarian = system: SK-OV-3 ovarian
HOP-92 NSCLC = system: HOP-92 NSCLC
MCF7 breast = system: MCF7 breast
COLO 205 colon = system: COLO 205 colon
HCT-15 colon = system: HCT-15 colon
CAKI-1 renal = system: CAKI-1 renal
DU-145 prostate = system: DU-145 prostate

## C/C=C\C(=O)O[C@@H]1CC2O[C@@H]3C=C(C)C(=O)C[C@]3(C)[C@]1(C)[C@]21CO1
RXF 393 renal
  GI50: 499 nM
  TGI: 1620 nM
KM12 colon
  GI50: 567 nM
  TGI: 5550 nM
HCC-2998 colon
  GI50: 769 nM
  TGI: 2720 nM
HCT-116 colon
  GI50: 429 nM
  TGI: 2630 nM
SNB-19 CNS
  GI50: 565 nM
  TGI: 3330 nM
SR leukemia
  GI50: 670 nM
  TGI: 3040 nM
786-0 renal
  GI50: 615 nM
  TGI: 3370 nM
NCI-H226 lung
  GI50: 648 nM
  TGI: 4360 nM
OVCAR-3 ovarian
  GI50: 783 nM
  TGI: 3080 nM
HL-60(TB) leukemia
  GI50: 522 nM
  TGI: 1350 nM
T-47D breast
  GI50: 529 nM
  TGI: 1970 nM
A549 NSCLC
  GI50: 795 nM
  TGI: 10300 nM
PC-3 prostate
  GI50: 799 nM
  TGI: 8120 nM
MDA-MB-435
  GI50: 660 nM
  TGI: 2670 nM
U251 CNS
  GI50: 648 nM
  TGI: 5600 nM
SK-MEL-28 melanoma
  GI50: 471 nM
  TGI: 1560 nM
SF-539 CNS
  GI50: 622 nM
  TGI: 1540 nM
NCI-H460 lung
  GI50: 668 nM
  TGI: 4400 nM
HOP-62 NSCLC
  GI50: 639 nM
  TGI: 1980 nM
MALME-3M melanoma
  GI50: 612 nM
  TGI: 2370 nM
HT29 colon
  GI50: 534 nM
  TGI: 2330 nM
SW-620 colon
  GI50: 634 nM
  TGI: 6280 nM
NCI-H23 lung
  GI50: 587 nM
  TGI: 2140 nM
TK-10 renal
  GI50: 664 nM
  TGI: 2500 nM
M14 melanoma
  GI50: 431 nM
  TGI: 962 nM
MOLT-4 leukemia
  GI50: 581 nM
  TGI: 2240 nM
UO-31 renal
  GI50: 712 nM
  TGI: 4310 nM
HS 578T breast
  GI50: 723 nM
  TGI: 2310 nM
OVCAR-5 ovarian
  GI50: 796 nM
  TGI: 3820 nM
SK-MEL-2 melanoma
  GI50: 468 nM
  TGI: 1480 nM
A498 renal
  GI50: 676 nM
  TGI: 2380 nM
NCI-H522 lung
  GI50: 486 nM
  TGI: 1620 nM
K-562 leukemia
  GI50: 507 nM
  TGI: 4480 nM
RPMI-8226 leukemia
  GI50: 522 nM
  TGI: 1500 nM
OVCAR-8 ovarian
  GI50: 756 nM
  TGI: 5490 nM
ACHN renal
  GI50: 642 nM
  TGI: 2770 nM
UACC-257 melanoma
  GI50: 599 nM
  TGI: 2110 nM
SF-268 CNS
  GI50: 743 nM
  TGI: 5450 nM
OVCAR-4 ovarian
  GI50: 632 nM
  TGI: 1930 nM
NCI/ADR-RES ovarian
  GI50: 783 nM
  TGI: 8300 nM
LOX IMVI melanoma
  GI50: 209 nM
  TGI: 1640 nM
SN12C renal
  GI50: 643 nM
  TGI: 3890 nM
MDA-MB-231 breast
  GI50: 604 nM
  TGI: 2030 nM
CCRF-CEM leukemia
  GI50: 422 nM
  TGI: 25000 nM
BT-549 breast
  GI50: 699 nM
  TGI: 1920 nM
SF-295 CNS
  GI50: 715 nM
  TGI: 4770 nM
EKVX NSCLC
  GI50: 873 nM
  TGI: 5700 nM
SK-MEL-5 melanoma
  GI50: 528 nM
  TGI: 1370 nM
UACC-62 melanoma
  GI50: 653 nM
  TGI: 2420 nM
SNB-75 CNS
  GI50: 470 nM
  TGI: 1960 nM
IGROV1 ovarian
  GI50: 842 nM
  TGI: 6440 nM
SK-OV-3 ovarian
  GI50: 896 nM
  TGI: 6560 nM
HOP-92 NSCLC
  GI50: 538 nM
  TGI: 1890 nM
MCF7 breast
  GI50: 459 nM
  TGI: 14900 nM
COLO 205 colon
  GI50: 459 nM
  TGI: 1160 nM
HCT-15 colon
  GI50: 671 nM
  TGI: 16500 nM

## COc1cc(/C=N/n2cnc3oc(-c4ccccc4)cc3c2=N)cc(CN2CCCCC2)c1O
RXF 393 renal
  GI50: 1410 nM
  TGI: 3150 nM
KM12 colon
  GI50: 1810 nM
  TGI: 3390 nM
HCC-2998 colon
  GI50: 1850 nM
  TGI: 3340 nM
HCT-116 colon
  GI50: 310 nM
  TGI: 959 nM
SNB-19 CNS
  GI50: 1980 nM
  TGI: 3730 nM
SR leukemia
  GI50: 247 nM
  TGI: 687 nM
786-0 renal
  GI50: 1480 nM
  TGI: 3030 nM
NCI-H226 lung
  GI50: 2010 nM
  TGI: 4550 nM
CAKI-1 renal
  GI50: 1430 nM
  TGI: 2770 nM
T-47D breast
  GI50: 2040 nM
  TGI: 4620 nM
A549 NSCLC
  GI50: 1700 nM
  TGI: 3450 nM
MDA-MB-435
  GI50: 1640 nM
  TGI: 3060 nM
U251 CNS
  GI50: 1830 nM
  TGI: 3600 nM
SK-MEL-28 melanoma
  GI50: 1630 nM
  TGI: 3250 nM
SF-539 CNS
  GI50: 1750 nM
  TGI: 3330 nM
NCI-H460 lung
  GI50: 1430 nM
  TGI: 3080 nM
HOP-62 NSCLC
  GI50: 1790 nM
  TGI: 3770 nM
MALME-3M melanoma
  GI50: 1790 nM
  TGI: 3720 nM
HT29 colon
  GI50: 489 nM
  TGI: 1790 nM
SW-620 colon
  GI50: 1910 nM
  TGI: 3760 nM
DU-145 prostate
  GI50: 1800 nM
  TGI: 3320 nM
NCI-H23 lung
  GI50: 1810 nM
  TGI: 3570 nM
TK-10 renal
  GI50: 1910 nM
  TGI: 3460 nM
M14 melanoma
  GI50: 1560 nM
  TGI: 3180 nM
MOLT-4 leukemia
  GI50: 2250 nM
  TGI: 6570 nM
UO-31 renal
  GI50: 1390 nM
  TGI: 2920 nM
HS 578T breast
  GI50: 1830 nM
  TGI: 4360 nM
OVCAR-5 ovarian
  GI50: 1890 nM
  TGI: 3460 nM
SK-MEL-2 melanoma
  GI50: 1790 nM
  TGI: 3660 nM
A498 renal
  GI50: 1730 nM
  TGI: 3280 nM
NCI-H522 lung
  GI50: 2010 nM
  TGI: 4510 nM
K-562 leukemia
  GI50: 201 nM
  TGI: 458 nM
RPMI-8226 leukemia
  GI50: 2130 nM
  TGI: 5380 nM
OVCAR-8 ovarian
  GI50: 1950 nM
  TGI: 4700 nM
ACHN renal
  GI50: 1360 nM
  TGI: 2670 nM
UACC-257 melanoma
  GI50: 1930 nM
  TGI: 3880 nM
SF-268 CNS
  GI50: 1970 nM
  TGI: 4030 nM
OVCAR-4 ovarian
  GI50: 1750 nM
  TGI: 3670 nM
NCI/ADR-RES ovarian
  GI50: 2140 nM
  TGI: 4910 nM
LOX IMVI melanoma
  GI50: 444 nM
  TGI: 1520 nM
SN12C renal
  GI50: 1550 nM
  TGI: 3210 nM
MDA-MB-231 breast
  GI50: 1640 nM
  TGI: 3350 nM
CCRF-CEM leukemia
  GI50: 324 nM
  TGI: 1250 nM
BT-549 breast
  GI50: 2120 nM
  TGI: 4190 nM
SF-295 CNS
  GI50: 1830 nM
  TGI: 3390 nM
EKVX NSCLC
  GI50: 1890 nM
  TGI: 3680 nM
SK-MEL-5 melanoma
  GI50: 1760 nM
  TGI: 3170 nM
UACC-62 melanoma
  GI50: 1830 nM
  TGI: 3350 nM
SNB-75 CNS
  GI50: 1390 nM
  TGI: 2790 nM
IGROV1 ovarian
  GI50: 1690 nM
  TGI: 3350 nM
HOP-92 NSCLC
  GI50: 1480 nM
  TGI: 3280 nM
MCF7 breast
  GI50: 512 nM
  TGI: 1990 nM
HCT-15 colon
  GI50: 1770 nM
  TGI: 3490 nM

Reference: PubChem BioAssay (NCI)
